Data from patent US9738634B2, “Heterocyclic amide compound and herbicide” (SYNGENTA PARTICIPATIONS AG, priority 2013, dated 2017).

Experiments:
Assay type in all cases: in vivo
Conditions in all cases: treatment dosage 320 g/ha
crabgrass [1] = assay: Test Example 3: weedkilling efficacy through soil treatment; D: crabgrass
Procedure, shortened: (§1)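 Crop and weed responses were judged three weeks after a uniform surface spray of the water-diluted emulsion at the given g/ha rate. Seeds sat beneath about 1.5 cm of sterilized diluvial soil, and boxes stood in a greenhouse at 25 to 30° C.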

green foxtail [2] = assay: Test Example 3: weedkilling efficacy through soil treatment; E: green foxtail
Procedure, shortened: as §1

barnyard grass [3] = assay: Test Example 3: weedkilling efficacy through soil treatment; F: barnyard grass
Procedure, shortened: as §1

wild oat [4] = assay: Test Example 3: weedkilling efficacy through soil treatment; G: wild oat
Procedure, shortened: as §1

black-grass [5] = assay: Test Example 3: weedkilling efficacy through soil treatment; H: black-grass
Procedure, shortened: as §1

Italian ryegrass [6] = assay: Test Example 3: weedkilling efficacy through soil treatment; I: Italian ryegrass
Procedure, shortened: as §1

common wind-grass [7] = assay: Test Example 3: weedkilling efficacy through soil treatment; J: common wind-grass
Procedure, shortened: as §1

Indian mallow [8] = assay: Test Example 3: weedkilling efficacy through soil treatment; K: Indian mallow
Procedure, shortened: as §1

redroot pigweed [9] = assay: Test Example 3: weedkilling efficacy through soil treatment; L: redroot pigweed
Procedure, shortened: as §1

fig-leafed goosefoot [10] = assay: Test Example 3: weedkilling efficacy through soil treatment; M: fig-leafed goosefoot
Procedure, shortened: as §1

chickweed [11] = assay: Test Example 3: weedkilling efficacy through soil treatment; N: chickweed
Procedure, shortened: as §1

catchweed [12] = assay: Test Example 3: weedkilling efficacy through soil treatment; O: catchweed
Procedure, shortened: as §1

birds-eye speedwell = assay: Test Example 3: weedkilling efficacy through soil treatment; p: birds-eye speedwell
Procedure, shortened: as §1

directly sown rice [13] = assay: Test Example 3: soil treatment, effect on crop; b: directly sown rice
Procedure, shortened: as §1

corn [14] = assay: Test Example 3: soil treatment, effect on crop; c: corn
Procedure, shortened: as §1

soybean [15] = assay: Test Example 3: soil treatment, effect on crop; d: soybean
Procedure, shortened: as §1

wheat [16] = assay: Test Example 3: soil treatment, effect on crop; e: wheat
Procedure, shortened: as §1

rapeseed [17] = assay: Test Example 3: soil treatment, effect on crop; g: rapeseed
Procedure, shortened: as §1

crabgrass [18] = assay: Test Example 4: weedkilling efficacy by foliar treatment; D: crabgrass
Procedure, shortened: (§2)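 Seeds are spot-sown into sterilized diluvial soil and covered with about 1.5 cm of soil. After 14 days' greenhouse growth at 25 to 30° C, plants are sprayed on stems and leaves with diluted emulsion at the stated g/ha rate, then scored at 3 weeks.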

green foxtail [19] = assay: Test Example 4: weedkilling efficacy by foliar treatment; E: green foxtail
Procedure, shortened: as §2

barnyard grass [20] = assay: Test Example 4: weedkilling efficacy by foliar treatment; F: barnyard grass
Procedure, shortened: as §2

wild oat [21] = assay: Test Example 4: weedkilling efficacy by foliar treatment; G: wild oat
Procedure, shortened: as §2

black-grass [22] = assay: Test Example 4: weedkilling efficacy by foliar treatment; H: black-grass
Procedure, shortened: as §2

Italian ryegrass [23] = assay: Test Example 4: weedkilling efficacy by foliar treatment; I: Italian ryegrass
Procedure, shortened: as §2

common wind-grass [24] = assay: Test Example 4: weedkilling efficacy by foliar treatment; J: common wind-grass
Procedure, shortened: as §2

Indian mallow [25] = assay: Test Example 4: weedkilling efficacy by foliar treatment; K: Indian mallow
Procedure, shortened: as §2

redroot pigweed [26] = assay: Test Example 4: weedkilling efficacy by foliar treatment; L: redroot pigweed
Procedure, shortened: as §2

fig-leafed goosefoot [27] = assay: Test Example 4: weedkilling efficacy by foliar treatment; M: fig-leafed goosefoot
Procedure, shortened: as §2

chickweed [28] = assay: Test Example 4: weedkilling efficacy by foliar treatment; N: chickweed
Procedure, shortened: as §2

catchweed [29] = assay: Test Example 4: weedkilling efficacy by foliar treatment; O: catchweed
Procedure, shortened: as §2

directly sown rice [30] = assay: Test Example 4: foliar treatment, effect on crop; b: directly sown rice
Procedure, shortened: as §2

corn [31] = assay: Test Example 4: foliar treatment, effect on crop; c: corn
Procedure, shortened: as §2

soybean [32] = assay: Test Example 4: foliar treatment, effect on crop; d: soybean
Procedure, shortened: as §2

wheat [33] = assay: Test Example 4: foliar treatment, effect on crop; e: wheat
Procedure, shortened: as §2

beet = assay: Test Example 4: foliar treatment, effect on crop; f: beet
Procedure, shortened: as §2

rapeseed [34] = assay: Test Example 4: foliar treatment, effect on crop; g: rapeseed
Procedure, shortened: as §2

CC1=C(c2cccnc2F)C(=O)N(C(C)(C)C(=O)Nc2cc(Cl)cc(Cl)n2)CO1 [B-2-11]
D (crabgrass) weedkilling efficacy grade (crabgrass [1]): 5 (weed kill ratio 90% or more, (practically complete withering)) | E (green foxtail) weedkilling efficacy grade (green foxtail [2]): 5 (weed kill ratio 90% or more, (practically complete withering)) | F (barnyard grass) weedkilling efficacy grade (barnyard grass [3]): 5 (weed kill ratio 90% or more, (practically complete withering)) | G (wild oat) weedkilling efficacy grade (wild oat [4]): 3 (weed kill ratio 40% or more, less than 70%) | H (black-grass) weedkilling efficacy grade (black-grass [5]): 5 (weed kill ratio 90% or more, (practically complete withering)) | I (Italian ryegrass) weedkilling efficacy grade (Italian ryegrass [6]): 5 (weed kill ratio 90% or more, (practically complete withering)) | J (common wind-grass) weedkilling efficacy grade (common wind-grass [7]): 5 (weed kill ratio 90% or more, (practically complete withering)) | K (Indian mallow) weedkilling efficacy grade (Indian mallow [8]): 0 (weed kill ratio 5% or less (practically no effect)) | L (redroot pigweed) weedkilling efficacy grade (redroot pigweed [9]): 0 (weed kill ratio 5% or less (practically no effect)) | M (fig-leafed goosefoot) weedkilling efficacy grade (fig-leafed goosefoot [10]): 4 (weed kill ratio 70% or more, less than 90%) | N (chickweed) weedkilling efficacy grade (chickweed [11]): 4 (weed kill ratio 70% or more, less than 90%) | O (catchweed) weedkilling efficacy grade (catchweed [12]): 3 (weed kill ratio 40% or more, less than 70%) | P (birds-eye speedwell) weedkilling efficacy grade (birds-eye speedwell): 5 (weed kill ratio 90% or more, (practically complete withering)) | b (directly sown rice) effect on crop grade (directly sown rice [13]): 3 (weed kill ratio 40% or more, less than 70%) | c (corn) effect on crop grade (corn [14]): 1 (weed kill ratio 5% or more, less than 20%) | d (soybean) effect on crop grade (soybean [15]): 0 (weed kill ratio 5% or less (practically no effect)) | e (wheat) effect on crop grade (wheat [16]): 0 (weed kill ratio 5% or less (practically no effect)) | g (rapeseed) effect on crop grade (rapeseed [17]): 1 (weed kill ratio 5% or more, less than 20%) | D (crabgrass) weedkilling efficacy grade (crabgrass [18]): 5 (weed kill ratio 90% or more, (practically complete withering)) | E (green foxtail) weedkilling efficacy grade (green foxtail [19]): 5 (weed kill ratio 90% or more, (practically complete withering)) | F (barnyard grass) weedkilling efficacy grade (barnyard grass [20]): 5 (weed kill ratio 90% or more, (practically complete withering)) | G (wild oat) weedkilling efficacy grade (wild oat [21]): 4 (weed kill ratio 70% or more, less than 90%) | H (black-grass) weedkilling efficacy grade (black-grass [22]): 5 (weed kill ratio 90% or more, (practically complete withering)) | I (Italian ryegrass) weedkilling efficacy grade (Italian ryegrass [23]): 5 (weed kill ratio 90% or more, (practically complete withering)) | J (common wind-grass) weedkilling efficacy grade (common wind-grass [24]): 5 (weed kill ratio 90% or more, (practically complete withering)) | K (Indian mallow) weedkilling efficacy grade (Indian mallow [25]): 5 (weed kill ratio 90% or more, (practically complete withering)) | L (redroot pigweed) weedkilling efficacy grade (redroot pigweed [26]): 4 (weed kill ratio 70% or more, less than 90%) | M (fig-leafed goosefoot) weedkilling efficacy grade (fig-leafed goosefoot [27]): 5 (weed kill ratio 90% or more, (practically complete withering)) | N (chickweed) weedkilling efficacy grade (chickweed [28]): 4 (weed kill ratio 70% or more, less than 90%) | O (catchweed) weedkilling efficacy grade (catchweed [29]): 4 (weed kill ratio 70% or more, less than 90%) | b (directly sown rice) effect on crop grade (directly sown rice [30]): 3 (weed kill ratio 40% or more, less than 70%) | c (corn) effect on crop grade (corn [31]): 5 (weed kill ratio 90% or more, (practically complete withering)) | d (soybean) effect on crop grade (soybean [32]): 4 (weed kill ratio 70% or more, less than 90%) | e (wheat) effect on crop grade (wheat [33]): 0 (weed kill ratio 5% or less (practically no effect)) | f (beet) effect on crop grade (beet): 4 (weed kill ratio 70% or more, less than 90%) | g (rapeseed) effect on crop grade (rapeseed [34]): 4 (weed kill ratio 70% or more, less than 90%)
